Columns and labels:
BNL cells = experiment: CTL cytotoxicity assay (LDH release), BNL targets; type: cell-based, mouse; conditions: splenocytes of treated mice, in vitro
Procedure: (§1) viable splenocytes from control or treated mice (10×10^6) were stimulated in vitro with mitomycin C-treated CT26 cells (10×10^5 cells/well in 24-well-plates). On day 5, cells were harvested and washed, adjusted to 2×10^6/mL, and added to 96-well-plate (effector cells). To determine specific CTL cytotoxicity activity CT26 and BNL cells were used as target at 2×10^5/mL. After incubation for 4 h at 37° C., plates were centrifuged and cell-free supernatants were obtained. Levels of released LDH were evaluated with the LDH Cytotoxicity Detection Kit (Sigma-Aldrich) following the manufacturer's instructions and expressed as percentage of lysis.

CT26 CRC cells = experiment: Long-term protection study (re-challenge); type: in vivo, BALB/c mice; conditions: 3 weeks after complete tumor regression, 5×10^5 cells left flank
Text: to evaluate protective immunity, animals that were free of disease at 3 wk after complete regression of primary tumors (7 week after first tumor inoculation) were challenged with 5×10^5 CT26 cells on the left flank.

[1] = tested on: CT26 cells injected into the liver; experiment: Liver metastatic CRC model; type: in vivo, BALB/c mice
Procedure: BALB/c mice received an intra-hepatic inoculation of 5×10^5 CT26 cells (day 0). The mice were distributed in experimental groups and treated with saline (control group, n=6); Antartina (5 mg/kg i.p., n=8 day 8). At day 18, animals were sacrificed and the volume of metastatic nodules was measured with caliper.

Toxicity studies = type: in vivo, BALB/c mice
Procedure: BALB/c mice untreated or treated with Antartina (5 mg/kg and 50 mg/kg) were used to assess its toxicology profile. […] Aspartate aminotransferase (AST) and alanine aminotransferase (ALT) levels were measured by standard colorimetric methods. Also, healthy mice or mice receiving Antartina were sacrificed to collect liver, spleen, and kidney samples. Paraffin embedded tissues were stained with H & E for pathological analysis.

CT26 cells [2] = experiment: CTL cytotoxicity assay (LDH release), CT26 targets; type: cell-based, mouse; conditions: splenocytes of treated cured mice, p<0.001
Procedure: as §1

CT26 CRC tumors = experiment: Subcutaneous CRC model; type: in vivo, BALB/c mice; conditions: for microscopic examination of tumor sections (H & E): 10 and 15 days after treatment
Procedure: Subcutaneous CRC model: CT26 cells were injected at a dose of 5×10^5 cells subcutaneously (s.c.) into the right flank of BALB/c mice (day 0). Tumors were allowed to reach approximately 90 mm^3 in size before treatment was started. Animals were distributed in different groups and then treated with Antartina or 0.1% DMSO in sterile water intraperitoneal (i.p.) (control group, n=6); Antartina (5 or 50 mg/kg i.p., day 8, n=9). Tumor growth was assessed by caliper measurement.
tumor samples from experimental groups were obtained 10 and 15 days after treatment and fixed in 10% phosphate-buffered formalin. Five-micrometer sections from paraffin-embedded tissues were stained with hematoxylin and eosin (H & E) for histologic examination.

CT26 cells [3] = experiment: Cell viability assay (MTS, 490 nm); type: cell-based, mouse
Procedure: Mouse CT26 tumor cell line, an undifferentiated murine colorectal carcinoma (CRC) cell line established from a N-nitroso-N-methylurethan-induced transplantable tumor in BALB/c (H-2d) mice and BNL hepatoma cell line was kindly provided by Prof. Jesús Prieto, University of Navarra, Spain. CT26 and BNL were cultured in complete DMEM (2 mM glutamine, 100 U/ml penicillin, […] streptomycin) and 10% heat-inactivated fetal bovine serum (FBS) and incubated at 37° C. in a 5% CO2 humidified atmosphere.
Antartina was dissolved in 0.1% DMSO and sterile water an injected intraperitoneally (i.p.) at the doses indicated or used for in vitro assays at different concentrations (0.1; 1 and 10 µg/ml). Fluorouracil Rontag® (5-Fu) 500 mg was diluted in saline solution at indicated concentrations (0.1; 1 and 10 µg/ml).
CT26 cells were plated onto 96-well plates at a density of 5×10^3 cells/well and cultured with DMEM or Antartina at different doses (0.1-1-10 […]at different doses (0.1-1-10 DMEM or y of 5×10t indicated concentrations (0.1; 1 and 10 nd 10 ions (0.1; 1 and 10 mental for 4 hour after which the absorbance of each well was read at 490 nm. All assays were performed in quadruplicate, and each assay was repeated twice.

hepatocellular carcinoma = experiment: Hepatocellular carcinoma in mice with advanced fibrosis (preliminary, data not shown); type: in vivo
[4] = tested on: tumor-infiltrating CD4+ and CD8+ T cells; experiment: Flow cytometry of tumor-infiltrating T lymphocytes; type: in vivo, BALB/c mice; conditions: day 18, p<0.05
Procedure: previously, single cell suspensions were obtained by mechanical disruption of tumor samples treated with 0.5 mg/ml Collagenase I at 37° C. for 45 min and washed with PBS 1% bovine serum albumin. Then, tumor cells were stained with PECy5-anti-CD4 (BD Biosciences) and AlexaFluor488-anti-CD8 (BD Biosciences) and their respective isotypes and subjected to flow cytometry (FACSAria, BD). Data were analyzed using Cyflogic v. 1.2.1 software.

CT26 cells [5] = experiment: Cell cycle analysis (propidium iodide, flow cytometry); type: cell-based, mouse; conditions: 48 h and 72 h, Antartina 10 µg/ml
Procedure: 1×10^6 CT26 cells cultured with DMEM or Antartina were collected washed in PBS and fixed in a mixture of ice-cold 70% (v/v) ethanol, FBS and distill water. Fixed cells were centrifuged and stained with propidium iodide (PI) solution (50 μg/ml PI, 180 U/ml RNAse). DNA content was determined using a FACS Accuri 6 laser flow cytometer (Becton Dickinson).

With `COc1cc(-c2cc(=O)c3c(O)cc(O[C@@H]4O[C@H](CO)[C@@H](O)[C@H](O)[C@H]4O)cc3o2)cc(OC)c1O` [Antartina, Tricin 7-O-β-D-glucopyranoside] the “CTL activity against BNL cells” value (BNL cells) was “no CTL activity”, the “re-challenge of cured animals with CT26 cells” value (CT26 CRC cells) was “rejected in all animals” and the “treated animals showing a reduction in metastases growth” value ([1]; 5 mg/kg i.p.) was “more than 60%”. For the same molecule, the “mean of tumor volume” value ([1]; 5 mg/kg i.p. from day 8, day 18 after inoculation, control 1508±204) was 955±275 mm^3, the survival vs controls ([1]; 5 mg/kg i.p., liver metastatic model, p<0.01) was “superior” and the “H & E stained tissues (liver, spleen, kidney)” value (Toxicity studies; 5 mg/kg and 50 mg/kg) was “no signs of toxicity”. The “body weight gain in both groups” value (Toxicity studies; 5 and 50 mg/kg) was “similar”, the “general health of animals” value (Toxicity studies; 5 and 50 mg/kg) was “remained healthy” and the “tolerability, clinical and biochemical toxicity (AST, ALT)” value (Toxicity studies; 5 and 50 mg/kg, observed more than 30 days) was “well tolerated with no evident signs of clinical and biochemical toxicity”. The “specific CTL activity against CT26 cells” value (CT26 cells [2]) was “potent activation of specific cytotoxic T lymphocytes”, the “specific CTL activity against CT26 cells” value (CT26 cells [2]; listed as Antarina) was “potent CTL activity against CT26 cells” and the “tumor growth vs saline control” value (CT26 CRC tumors; 5 mg/kg i.p., from day 8 three times a week, over 30 days) was “significant inhibition of tumor growth”. For the same molecule, the “survival rate vs controls” value (CT26 CRC tumors; 5 mg/kg i.p., s.c. CT26 model) was “significantly increased”, the “complete tumor regression, percent of mice” value (CT26 CRC tumors; 50 mg/kg i.p.) was “more than 30%” and the tumor volume (CT26 CRC tumors; 50 mg/kg i.p. from day 8) was “potent tumor volume reduction”. For the same molecule, the “complete tumor regression, mice of group” value (CT26 CRC tumors; 50 mg/kg i.p., n=9) was 3/9, the “animal survival vs saline control” value (CT26 CRC tumors; 50 mg/kg i.p., p<0.01) was “significantly increased” and the “microscopic examination of tumor sections (H & E)” value (CT26 CRC tumors; 50 mg/kg i.p.) was “extensive areas of necrosis and marked mononuclear cells infiltration”. For the same molecule, the “microscopic examination of tumor sections (H & E)” value (CT26 CRC tumors; 50 mg/kg i.p., listed as Antarina) was “intense mononuclear infiltrate and extensive areas of necrosis”, the CT26 cell survival (CT26 cells [3]; 48 h, highest concentration, p<0.05) was “inhibits CT26 cell survival” and the “cell viability reduced to” value (CT26 cells [3]; 72 h, 10 µg/ml, p<0.001) was roughly 50%. The cell viability reduced (CT26 cells [3]; 72 h, 1 µg/ml, p<0.05) was “more than 20%”, the “antitumoral activity in vivo against hepatocellular carcinoma” value (hepatocellular carcinoma) was “antitumoral activity” and the “proportion of tumor-infiltrating CD4+ and CD8+ T cells vs control” value [4] was “increased proportion”. For the same molecule, the cell cycle pattern (CT26 cells [5]) was “arrested at G2/M phase” and the cell cycle pattern (CT26 cells [5]; listed as Antarina) was “halted CT26 cells at the transition from G2 to M-phase”.

Reference: patent US10058582B2, “Therapeutic molecules and deviates for CRC” (ANTARTINA LLC, priority 2015, dated 2018)
